Results as given in US6846933B1, “Antimycobacterial compounds and method for making the same” (priority 2000, dated 2005).
≈ marks a conversion by molar mass, not a printed value. Read-outs that look alike come from different tables or passages of the source.

Tests used:
[1] = test system: Mycobacterium tuberculosis H37Rv (ATCC 27294); assay: TAACF MIC / primary screen vs M. tuberculosis H37Rv (MABA or BACTEC 460); assay type: cell-based; details: for MIC: Mycobacterium tuberculosis; for MIC (ug/mg): Table 1, M. tuberculosis assay
M. tuberculosis RMP-R = assay: microbe, parasite or virus in culture; assay type: cell-based; details: Mycobacterium tuberculosis, read-out: MBC vs RMP-R (ug/ml)
M. tuberculosis INH-r = assay: microbe, parasite or virus in culture; assay type: cell-based; details: Mycobacterium tuberculosis, read-out: MBC vs INH-r (ug/ml)
M. tuberculosis H37Rv = assay: Minimum bactericidal concentration vs H37Rv; assay type: cell-based; details: Mycobacterium tuberculosis, read-out: MBC vs H37Rv (ug/ml)
M. avium (ATCC 25291) = assay: TAACF M. avium assay; assay type: cell-based, Mycobacterium avium; set-up: % Inhibition: concentration or dose not given beside the values; details: for % Inhibition: M. avium assay; for MIC: Mycobacterium avium, ATCC25291, M. avium assay
M. kansasii swank = assay: Broth dilution MIC vs M. kansasii swank; assay type: cell-based; details: Mycobacterium kansasii; modified 7H10 broth, lowest concentration with no turbidity
VERO cells = assay: Cytotoxicity in VERO cells (MTT, 72 hours); assay type: cell-based; details: Chlorocebus sabaeus
[2] = test system: M. tuberculosis Erdman (ATCC 35801) in monolayers of mouse bone marrow macrophages; assay: Killing of M. tuberculosis Erdman in mouse bone marrow macrophages; assay type: cell-based; details: Mycobacterium tuberculosis, Bone marrow macrophage, 168 h
M. tuberculosis EMB-R = assay: microbe, parasite or virus in culture; assay type: cell-based; details: Mycobacterium tuberculosis, read-out: MIC EMB-R (ug/ml)
M. tuberculosis Erdman = assay: MIC vs M. tuberculosis Erdman; assay type: cell-based; details: Mycobacterium tuberculosis
M. tuberculosis TAC-R = assay: microbe, parasite or virus in culture; assay type: cell-based; details: Mycobacterium tuberculosis, Bactec, strain panel
M. tuberculosis ETA-R = assay: MIC vs ETA-R M. tuberculosis; assay type: cell-based; details: Mycobacterium tuberculosis, read-out: MIC ETA-R (ug/ml)
[3] = Quantitative estimate of relative lipophilicity (chloroform/water partitioning vs isoniazid); details: ratio chloroform:water compared to same ratio for isoniazid as standard (INH = unity)
[4] = Bactec, Tables 10-12, read-out: MIC
[5] = Bactec, strain panel, read-out: MIC H37Rv
[6] = Bactec, strain panel, read-out: MIC Erdman
[7] = M. tuberculosis assay, Tables 4 and 5, read-out: MIC
[8] = M. tuberculosis assay, Table 13, primary screen
[9] = M. tuberculosis assay, Table 13, primary screen, read-out: MIC
[10] = BACTEC, Tables 2 and 3, read-out: MIC

Q: Which MIC ([1]; M. tuberculosis assay, Alamar, Tables 7 and 9) does the source give for `CCC/C(CC(=O)OCC)=N/NC(=O)c1ccncc1` [Sample ID 101702] here?
A: 0.39 µg/mL (≈ 1.41 µM)

Q: And the MBC (M. tuberculosis RMP-R)?
A: 0.39 µg/mL (≈ 1.41 µM)

Q: What about the MBC (M. tuberculosis INH-r) of the same molecule?
A: > 12.5 µg/mL

Q: And the MBC (M. tuberculosis H37Rv)?
A: ≥ 0.19 µg/mL

Q: For `CC(=O)N1N=C(c2ccncc2)OC1c1ccc(Cl)c(Cl)c1` (centres unmarked) [Sample ID 123669], which “% Inhibition” value (M. avium (ATCC 25291); Bactec, Tables 10-12) is on record?
A: 65%

Q: What about the MIC (M. avium (ATCC 25291); [4]) of the same molecule?
A: > 12.5 µg/mL

Q: For `NNC(=O)c1ccncc1` [INH, isonicotinic acid hydrazide, reference compound], which MIC (M. kansasii swank) is on record?
A: 1 µg/mL (≈ 7.29 µM)

Q: And the IC50 (VERO cells)?
A: > 1000 µg/mL

Q: And the EC90 [2]?
A: 0.21 µg/mL (≈ 1.53 µM)

Q: What about the EC99 [2] of the same molecule?
A: > 0.4 µg/mL

Q: Which results are given for `CC1C/C(=N/NC(=O)c2ccncc2)CC(C)(C)C1` (centres unmarked) [Sample ID 114353]?
A: MIC (M. tuberculosis EMB-R): < 0.1 µg/mL; MIC [1, 5]: < 0.1 µg/mL; MIC ([1]; M. tuberculosis assay, Bactec, Tables 6, 7, 8): > 6.25 µg/mL; MIC (M. tuberculosis Erdman; [6]): < 0.1 µg/mL

Q: Which results are given for `CC(C)=NNC(=O)c1ccncc1` [Sample ID 102752]?
A: MIC [1, 7]: 0.1 µg/mL (≈ 0.564 µM); EC90 [2]: 0.03 µg/mL (≈ 0.169 µM); EC99 [2]: 0.14 µg/mL

Q: Which MIC [1, 7] does the source give for `O=C(N/N=C/c1ccccc1)c1ccncc1` [Sample ID 102787] here?
A: 0.1 µg/mL (≈ 0.444 µM)

Q: And the EC90 [2]?
A: 0.04 µg/mL (≈ 0.178 µM)

Q: What about the EC99 [2] of the same molecule?
A: 0.12 µg/mL

Q: Which results are given for `CC(=O)N1N=C(c2ccncc2)OC1c1c(F)cccc1F` (centres unmarked) [Sample ID 122492]?
A: % Inhibition [1, 8]: 99%; MIC [1, 9]: < 12.5 µg/mL

Q: With `O=C(N/N=C/c1ccc(F)cc1)c1ccncc1` [Sample ID 103167] as the molecule, how does the MIC [1, 7] read?
A: 0.1 µg/mL (≈ 0.411 µM)

Q: And the EC90 [2]?
A: 0.02 µg/mL (≈ 0.0822 µM)

Q: And the EC99 [2]?
A: 0.07 µg/mL

Q: What does the source list for `CC(=O)N1N=C(c2ccncc2)OC1c1ccc(Cl)c([N+](=O)[O-])c1` (centres unmarked) [Sample ID 122491]?
A: % Inhibition [1, 8]: 98%; MIC [1, 9]: < 12.5 µg/mL

Q: For `COc1ccccc1/C=N/NC(=O)c1ccncc1` [Sample ID 102871], which MIC [1, 7] is on record?
A: 0.2 µg/mL (≈ 0.783 µM)

Q: What about the EC90 [2] of the same molecule?
A: 0.06 µg/mL (≈ 0.235 µM)

Q: And the EC99 [2]?
A: 0.23 µg/mL

Q: Which melting point does the source give for `CC(=O)NNC(=O)c1ccncc1` here?
A: 158 to 160 °C

Q: For `O=C(N/N=C/c1cc(Cl)ccc1Cl)c1ccncc1` [Sample ID 117150], which MIC [1, 5] is on record?
A: < 0.05 µg/mL

Q: And the MIC ([1]; M. tuberculosis assay, Bactec, Tables 6, 7, 8, read-out: MIC)?
A: 0.1 µg/mL (≈ 0.34 µM)

Q: And the MIC (M. tuberculosis Erdman; read-out: MIC Erdman (ug/ml))?
A: < 0.05 µg/mL

Q: What about the “% Inhibition” value (M. avium (ATCC 25291); Alamar, Table 11) of the same molecule?
A: 0%

Q: What about the MIC (M. avium (ATCC 25291); Alamar, Table 11, read-out: MIC) of the same molecule?
A: > 12.5 µg/mL

Q: And the MIC (M. avium (ATCC 25291); [10])?
A: > 3.25 µg/mL

Q: What about the MIC (M. tuberculosis TAC-R) of the same molecule?
A: > 3.25 µg/mL

Q: With `O=C(N/N=C/c1ccc(Cl)c(Cl)c1)c1ccncc1` [Sample ID 122490] as the molecule, how does the “% Inhibition” value ([1]; M. tuberculosis assay, Alamar, Table 7) read?
A: 99%

Q: What about the MIC ([1]; M. tuberculosis assay, Alamar, Tables 7 and 9, read-out: MIC) of the same molecule?
A: < 0.2 µg/mL

Q: What about the IC50 (VERO cells) of the same molecule?
A: > 10 µg/mL

Q: What about the “% Inhibition” value (M. avium (ATCC 25291); Bactec, Tables 10-12) of the same molecule?
A: 20%

Q: And the MIC (M. avium (ATCC 25291); [4])?
A: > 12.5 µg/mL

Q: With `O=C(N/N=C/C=C(c1ccccc1)c1ccccc1)c1ccncc1` [Sample ID 132532] as the molecule, how does the MIC (M. tuberculosis EMB-R) read?
A: > 3.2 µg/mL

Q: And the MIC [1, 5]?
A: 0.1 µg/mL (≈ 0.305 µM)

Q: And the “MIC (ug/mg)” value ([1]; Bactec)?
A: 0.1 µg/mL (≈ 0.305 µM)

Q: What about the MIC (M. tuberculosis ETA-R) of the same molecule?
A: 1.6 µg/mL (≈ 4.89 µM)

Q: What about the MIC (M. tuberculosis Erdman; [6]) of the same molecule?
A: 0.1 µg/mL (≈ 0.305 µM)

Q: And the MIC (M. avium (ATCC 25291); [10])?
A: > 3.2 µg/mL

Q: With `CCCCC(=O)NNC(=O)c1ccncc1` as the molecule, how does the melting point read?
A: 162 °C

Q: Which MIC [1, 7] does the source give for `CC(/C=N/NC(=O)c1ccncc1)=C\c1ccccc1` [Sample ID 103062] here?
A: 0.2 µg/mL (≈ 0.754 µM)

Q: What about the EC90 [2] of the same molecule?
A: 0.03 µg/mL (≈ 0.113 µM)

Q: And the EC99 [2]?
A: 0.15 µg/mL

Q: With `CCOC(=O)/C(CCc1ccccc1)=N\NC(=O)c1ccncc1` [Sample ID 132358] as the molecule, how does the MIC (M. tuberculosis EMB-R) read?
A: > 3.2 µg/mL

Q: And the MIC [1, 5]?
A: 0.1 µg/mL (≈ 0.307 µM)

Q: And the “MIC (ug/mg)” value ([1]; Bactec)?
A: 0.1 µg/mL (≈ 0.307 µM)

Q: What about the MIC (M. tuberculosis ETA-R) of the same molecule?
A: 0.8 µg/mL (≈ 2.46 µM)

Q: And the MIC (M. tuberculosis Erdman; [6])?
A: 0.1 µg/mL (≈ 0.307 µM)

Q: What about the MIC (M. avium (ATCC 25291); [10]) of the same molecule?
A: > 3.2 µg/mL

Q: Which “Relative Lipophilicity” value [3] does the source give for `O=C(NN=Cc1ccccc1[N+](=O)[O-])c1ccncc1` [Schiff Base Example 47, Isonicotinoylhydrazone of 2-Nitrobenzaldehyde] here?
A: 316

Q: With `CCCCOc1ccc(/C=N/NC(=O)c2ccncc2)cc1` [Sample ID 102090] as the molecule, how does the MIC [1, 7] read?
A: 0.1 µg/mL (≈ 0.336 µM)

Q: And the EC90 [2]?
A: 0.18 µg/mL (≈ 0.605 µM)

Q: What about the EC99 [2] of the same molecule?
A: > 1.6 µg/mL

Q: Which “% Inhibition” value (M. avium (ATCC 25291); Bactec, Tables 10-12) does the source give for `O=C(NNC(=S)Nc1ccc(Cl)cc1)c1ccncc1` [Sample ID 126719] here?
A: 84%

Q: And the MIC (M. avium (ATCC 25291); Bactec, Tables 10-12)?
A: > 12.5 µg/mL
